Measured values published in patent US4072574A, “System for in vitro assay for mutagenicity and/or carcinogenicity of chemicals or other exogenous agents” (priority 1976, dated 1978).

How the values were obtained:
AMV DNA polymerase = test: Fidelity of in vitro DNA synthesis (error frequency) with AMV DNA polymerase copying synthetic polynucleotide templates
Source text: In this invention, the ability of carcinogens to decrease the fidelity of in vitro DNA synthesis will be used to screen for carcinogenic or mutagenic agents. The system uses synthetic polynucleotides of defined composition which may be copied in the test tubes with procaryotic, eucaryotic or viral DNA polymerases. The use of synthetic polynucleotides of defined composition allows the measurement of the simultaneous incorporation of the correct, complementary nucleotide and an incorrect, non-complementary nucleotide. The correct nucleotide is labeled with [α-^32 P] of low specific activity and the incorrect nucleotide is labeled with [^3 H] of high specific activity. Through this double labeled reaction it is possible to determine the simultaneous incorporation of both nucleotides and thus to determine an error frequency. The error frequency may be defined as the ratio of the incorrect/correct nucleotide incorporation. Agents which increase this error frequency may be scored as positive. […] Agents which score positive would be checked using different templates to underscore the positive results. In this system different polymerases will be used as well as different templates. One would expect that most carcinogens would change the fidelity of DNA synthesis with different polymerases as well as with different templates though this need not be the case.
Each assay will consist of a polymerase, a polynucleotide template that only contains one or two nucleotides, a complementary nucleotide and a non-complementary nucleotide as well as magnesium. Both of the nucleotides will be labeled by radioactive precursors and the ratio between the two is to be used for a measure of error frequency in the system. In instances where a template requires two complementary nucleotides, only one will be radioactively labeled.
Reactions (total volume 0.05 ml) which measured complementary nucleotide incorporation contained 50 mM Tris-HCL (pH 8.0), 20 mM KCl, 5 mM dithiothreitol, 5 mM MgCl2, 2μg BSA, […] [α-^32 P] -dTTP (60 dpm/pmole), 1μg poly (A).oligo (dT) (1:1.5 mass ratio), and 0.45 μg of AMV DNA polymerase. For simultaneous quantitation of complementary and non-complementary nucleotide incorporation each reaction was modified to contain 26μM [α-^32 P]dTTP (12 dpm/pmole) and 23μM [^3 H]-dCTP (50,000 dpm/pmole). […] Metals were added directly to the reaction mixture as aqueous solutions of chloride salts. All reactions were incubated for 60 min. at 37° C. Incorporation of radioactive nucleotides into an acid-insoluble and alkali-resistant product was determined by using the precipitation-solubilization procedure as described by Battula and Loeb. All experiments were performed in triplicate and the averages were determined.
In order to determine the effect of different metals on the accuracy of DNA replication, metal cations were added as chloride salts directly to the polymerase reaction. In these experiments, poly (A).oligo (dT) was the template-primer and the simultaneous incorporation of complementary nucleotide, [α-^32 P]-dTMP, and the non-complementery nucleotide, [^3 H]-dCMP, was determined.
The effect of metal salts on the fidelity of DNA synthesis was examined by testing each of the metal salts at a minimum of seven different concentrations.

[1] = known status of the compound; cited from earlier work
[2] = Table 1, template poly [d(A-T)], classes 1-3 not defined
[3] = Table 1, template poly (C).oligo (dG), classes 1-3 not defined
[4] = 0.8 mM Ca(C2 H3 O2)2, template in drawing 3
[5] = 2.4 mM Ca(C2 H3 O2)2, template in drawing 3
[6] = 4.0 mM Ca(C2 H3 O2)2, template in drawing 3
[7] = 4.8 mM Ca(C2 H3 O2)2, template in drawing 3
[8] = 0.08 mM CrCl2, template in drawing 1
[9] = 0.16 mM CrCl2, template in drawing 1
[10] = 0.24 mM CrCl2, template in drawing 1
[11] = 0.64 mM CrCl2, template in drawing 1
[12] = 0.02 mM CuCl2, template in drawing 2
[13] = 0.04 mM CuCl2, template in drawing 2
[14] = 0.08 mM CuCl2, template in drawing 2
[15] = 0.12 mM CuCl2, template in drawing 2
[16] = 8 mM K2 HPO4, template in drawing 4
[17] = 16 mM K2 HPO4, template in drawing 4
[18] = 32 mM K2 HPO4, template in drawing 4
[19] = 40 mM K2 HPO4, template in drawing 4
[20] = 4 mM KC2 H3 O2, template in drawing 5
[21] = 20 mM KC2 H3 O2, template in drawing 5
[22] = 40 mM KC2 H3 O2, template in drawing 5
[23] = 80 mM KC2 H3 O2, template in drawing 5

O=S(=O)([O-])[O-].O=S(=O)([O-])[O-].O=S(=O)([O-])[O-].[Al+3].[Al+3] [(Al)2 (SO4)3]
Class (AMV DNA polymerase; [2]): 2
Metal Concentration which yielded the largest observed change in error rate (AMV DNA polymerase; template poly [d(A-T)]): 10 mM
Carcinogen or Mutagen [1]: -

N.N.O=S(=O)(O)O [(NH4)2 SO4]
Class (AMV DNA polymerase; [3]): 2
Metal Concentration which yielded the largest observed change in error rate (AMV DNA polymerase; template poly (C).oligo (dG)): 120 mM
Carcinogen or Mutagen [1]: -

O=[N+]([O-])[O-].[Ag+] [AgNO3]
Class (AMV DNA polymerase; [2]): 1
Metal Concentration which yielded the largest observed change in error rate (AMV DNA polymerase; template poly [d(A-T)]): 0.03 mM
Carcinogen or Mutagen [1]: +

CC(=O)O [Ca(C2 H3 O2)2]
Complementary Deoxynucleotide Incorporation (AMV DNA polymerase; [4]): 217 pmol
Error Frequency (AMV DNA polymerase; [4]): 1/986
Non-complementary Deoxynucleotide Incorporation (AMV DNA polymerase; [4]): 0.22 pmol
Complementary Deoxynucleotide Incorporation (AMV DNA polymerase; [5]): 78 pmol
Error Frequency (AMV DNA polymerase; [5]): 1/975
Non-complementary Deoxynucleotide Incorporation (AMV DNA polymerase; [5]): 0.08 pmol
Complementary Deoxynucleotide Incorporation (AMV DNA polymerase; [6]): 39 pmol
Error Frequency (AMV DNA polymerase; [6]): 1/975
Non-complementary Deoxynucleotide Incorporation (AMV DNA polymerase; [6]): 0.04 pmol
Complementary Deoxynucleotide Incorporation (AMV DNA polymerase; [7]): 17 pmol
Error Frequency (AMV DNA polymerase; [7]): 1/850
Non-complementary Deoxynucleotide Incorporation (AMV DNA polymerase; [7]): 0.02 pmol
Class (AMV DNA polymerase; Table 2, classes not defined): 2

CC(=O)[O-].CC(=O)[O-].[Cd+2] [Cd(C2 H3 O2)2]
Class (AMV DNA polymerase; [3]): 1
Metal Concentration which yielded the largest observed change in error rate (AMV DNA polymerase; template poly (C).oligo (dG)): 0.24 mM
Carcinogen or Mutagen [1]: +

[Cl][Cd][Cl] [CdCl2]
Class (AMV DNA polymerase; [3]): 1
Metal Concentration which yielded the largest observed change in error rate (AMV DNA polymerase; template poly (C).oligo (dG)): 0.04 mM
Carcinogen or Mutagen [1]: +

[Cl][Cr][Cl] [CrCl2]
Complementary Deoxynucleotide Incorporation (AMV DNA polymerase; [8]): 133 pmol
Error Frequency (AMV DNA polymerase; [8]): 1/578
Non-complementary Deoxynucleotide Incorporation (AMV DNA polymerase; [8]): 0.23 pmol
Complementary Deoxynucleotide Incorporation (AMV DNA polymerase; [9]): 169 pmol
Error Frequency (AMV DNA polymerase; [9]): 1/528
Non-complementary Deoxynucleotide Incorporation (AMV DNA polymerase; [9]): 0.32 pmol
Complementary Deoxynucleotide Incorporation (AMV DNA polymerase; [10]): 127 pmol
Error Frequency (AMV DNA polymerase; [10]): 1/363
Non-complementary Deoxynucleotide Incorporation (AMV DNA polymerase; [10]): 0.35 pmol
Complementary Deoxynucleotide Incorporation (AMV DNA polymerase; [11]): 71 pmol
Error Frequency (AMV DNA polymerase; [11]): 1/192
Non-complementary Deoxynucleotide Incorporation (AMV DNA polymerase; [11]): 0.37 pmol
Class (AMV DNA polymerase; [2]): 1
Metal Concentration which yielded the largest observed change in error rate (AMV DNA polymerase; template poly [d(A-T)]): 0.64 mM
Carcinogen or Mutagen [1]: +

[O]=[Cr](=[O])=[O] [CrO3]
Class (AMV DNA polymerase; [2]): 1
Metal Concentration which yielded the largest observed change in error rate (AMV DNA polymerase; template poly [d(A-T)]): 16 mM
Carcinogen or Mutagen [1]: +

CC(=O)[O-].CC(=O)[O-].[Cu+2] [Cu(C2 H3 O2)2]
Class (AMV DNA polymerase; [3]): 1
Metal Concentration which yielded the largest observed change in error rate (AMV DNA polymerase; template poly (C).oligo (dG)): 0.12 mM
Carcinogen or Mutagen [1]: ±

[Cl][Cu][Cl] [CuCl2]
Complementary Deoxynucleotide Incorporation (AMV DNA polymerase; [12]): 385 pmol
Error Frequency (AMV DNA polymerase; [12]): 1/875
Non-complementary Deoxynucleotide Incorporation (AMV DNA polymerase; [12]): 0.44 pmol
Complementary Deoxynucleotide Incorporation (AMV DNA polymerase; [13]): 130 pmol
Error Frequency (AMV DNA polymerase; [13]): 1/722
Non-complementary Deoxynucleotide Incorporation (AMV DNA polymerase; [13]): 0.18 pmol
Complementary Deoxynucleotide Incorporation (AMV DNA polymerase; [14]): 54 pmol
Error Frequency (AMV DNA polymerase; [14]): 1/540
Non-complementary Deoxynucleotide Incorporation (AMV DNA polymerase; [14]): 0.10 pmol
Complementary Deoxynucleotide Incorporation (AMV DNA polymerase; [15]): 36 pmol
Error Frequency (AMV DNA polymerase; [15]): 1/450
Non-complementary Deoxynucleotide Incorporation (AMV DNA polymerase; [15]): 0.08 pmol
Class (AMV DNA polymerase; [3]): 1
Metal Concentration which yielded the largest observed change in error rate (AMV DNA polymerase; template poly (C).oligo (dG)): 0.08 mM
Carcinogen or Mutagen [1]: ±

[Cl][Fe][Cl] [FeCl2]
Class (AMV DNA polymerase; [3]): 2
Metal Concentration which yielded the largest observed change in error rate (AMV DNA polymerase; template poly (C).oligo (dG)): 4 mM
Carcinogen or Mutagen [1]: ±

O=P([O-])([O-])O.[K+].[K+] [K2 HPO4]
Complementary Deoxynucleotide Incorporation (AMV DNA polymerase; [16]): 179 pmol
Error Frequency (AMV DNA polymerase; [16]): 1/814
Non-complementary Deoxynucleotide Incorporation (AMV DNA polymerase; [16]): 0.22 pmol
Complementary Deoxynucleotide Incorporation (AMV DNA polymerase; [17]): 180 pmol
Error Frequency (AMV DNA polymerase; [17]): 1/783
Non-complementary Deoxynucleotide Incorporation (AMV DNA polymerase; [17]): 0.23 pmol
Complementary Deoxynucleotide Incorporation (AMV DNA polymerase; [18]): 107 pmol
Error Frequency (AMV DNA polymerase; [18]): 1/823
Non-complementary Deoxynucleotide Incorporation (AMV DNA polymerase; [18]): 0.13 pmol
Complementary Deoxynucleotide Incorporation (AMV DNA polymerase; [19]): 48 pmol
Error Frequency (AMV DNA polymerase; [19]): 1/960
Non-complementary Deoxynucleotide Incorporation (AMV DNA polymerase; [19]): 0.05 pmol
Class (AMV DNA polymerase; [2]): 2
Class (AMV DNA polymerase; Table 2, classes not defined): 2
Metal Concentration which yielded the largest observed change in error rate (AMV DNA polymerase; template poly [d(A-T)]): 40 mM
Carcinogen or Mutagen [1]: -

CC(=O)[O-].[K+] [KC2 H2 O2]
Complementary Deoxynucleotide Incorporation (AMV DNA polymerase; [20]): 484 pmol
Error Frequency (AMV DNA polymerase; [20]): 1/733
Non-complementary Deoxynucleotide Incorporation (AMV DNA polymerase; [20]): 0.66 pmol
Complementary Deoxynucleotide Incorporation (AMV DNA polymerase; [21]): 423 pmol
Error Frequency (AMV DNA polymerase; [21]): 1/755
Non-complementary Deoxynucleotide Incorporation (AMV DNA polymerase; [21]): 0.56 pmol
Complementary Deoxynucleotide Incorporation (AMV DNA polymerase; [22]): 378 pmol
Error Frequency (AMV DNA polymerase; [22]): 1/741
Non-complementary Deoxynucleotide Incorporation (AMV DNA polymerase; [22]): 0.51 pmol
Complementary Deoxynucleotide Incorporation (AMV DNA polymerase; [23]): 379 pmol
Error Frequency (AMV DNA polymerase; [23]): 1/743
Non-complementary Deoxynucleotide Incorporation (AMV DNA polymerase; [23]): 0.51 pmol
Class (AMV DNA polymerase; [3]): 3
Class (AMV DNA polymerase; Table 2, classes not defined): 3
Metal Concentration which yielded the largest observed change in error rate (AMV DNA polymerase; template poly (C).oligo (dG)): 100 mM
Carcinogen or Mutagen [1]: -

[Cl-].[K+] [KCl, potassium chloride]
effect on the fidelity of DNA synthesis (in words) (AMV DNA polymerase; 1 mM to 300 mM, poly (A).oligo (dT)): did not alter the fidelity of DNA synthesis
Class (AMV DNA polymerase; [2]): 2
Metal Concentration which yielded the largest observed change in error rate (AMV DNA polymerase; template poly [d(A-T)]): 150 mM
Carcinogen or Mutagen [1]: -

[Cl][Mn][Cl] [MnCl2]
Class (AMV DNA polymerase; [3]): 1
Metal Concentration which yielded the largest observed change in error rate (AMV DNA polymerase; template poly (C).oligo (dG)): 10 mM
effect on the fidelity of DNA synthesis (in words) (AMV DNA polymerase; various templates): alter the fidelity

[Cl-].[Na+] [NaCl]
Class (AMV DNA polymerase; [2]): 2
Metal Concentration which yielded the largest observed change in error rate (AMV DNA polymerase; template poly [d(A-T)]): 120 mM

Cn1c(=O)c2c(ncn2C)n(C)c1=O [caffeine]
effect on the fidelity of DNA synthesis (in words) (AMV DNA polymerase; 0.1-20 mM, poly (A).oligo (dT)): did not alter the fidelity of DNA synthesis

CC1=C(/C=C/C(C)=C/C=C/C(C)=C/CO)C(C)(C)CCC1 [retinol]
effect on the fidelity of DNA synthesis (in words) (AMV DNA polymerase; 0.2-2μg, poly (A).oligo (dT)): did not alter the fidelity of DNA synthesis

NCCCCNCCCN [spermidine]
effect on the fidelity of DNA synthesis (in words) (AMV DNA polymerase; 0.1 to 5 mM, poly (A).oligo (dT)): did not alter the fidelity of DNA synthesis
